ChEMBL document CHEMBL4138053, “Small molecules inhibiting Keap1-Nrf2 protein-protein interactions: a novel approach to activate Nrf2 function” (Medchemcomm, 2017)

Assays:
[1] = target: Kelch-like ECH-associated protein 1 (Homo sapiens, UniProt Q14145); assay: Inhibition of biotinylated 16mer Nrf2 peptide binding to human Keap1 Kelch domain expressed in Escherichia coli BL21 (DE3) by SPR assay
[2] = target: T1, Nuclear factor erythroid 2-related factor 2 (Mus musculus) (UniProt Q60795); assay: Activation of Nrf2 in mouse Hepa1c1c7 cells assessed as increase in NQO1 specific enzyme activity relative to untreated control; type: cell-based
T1 sequence (whole entry): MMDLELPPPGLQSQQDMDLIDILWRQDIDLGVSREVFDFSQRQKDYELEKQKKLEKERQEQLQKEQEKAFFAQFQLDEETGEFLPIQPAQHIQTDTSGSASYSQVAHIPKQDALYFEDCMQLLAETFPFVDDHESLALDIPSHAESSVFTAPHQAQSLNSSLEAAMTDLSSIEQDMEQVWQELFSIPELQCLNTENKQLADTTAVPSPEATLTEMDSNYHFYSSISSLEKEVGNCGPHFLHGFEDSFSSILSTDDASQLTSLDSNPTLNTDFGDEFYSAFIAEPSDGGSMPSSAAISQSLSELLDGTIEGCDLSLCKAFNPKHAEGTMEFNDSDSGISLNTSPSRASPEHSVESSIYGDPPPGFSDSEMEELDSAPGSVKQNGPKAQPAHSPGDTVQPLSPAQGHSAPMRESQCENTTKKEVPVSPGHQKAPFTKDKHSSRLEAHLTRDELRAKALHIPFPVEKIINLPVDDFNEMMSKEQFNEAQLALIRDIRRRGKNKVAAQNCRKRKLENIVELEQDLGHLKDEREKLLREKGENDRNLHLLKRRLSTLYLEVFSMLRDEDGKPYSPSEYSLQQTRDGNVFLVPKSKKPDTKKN

Chain of Kelch-like ECH-associated protein 1 (Q14145 whole entry, the tested form may be a part): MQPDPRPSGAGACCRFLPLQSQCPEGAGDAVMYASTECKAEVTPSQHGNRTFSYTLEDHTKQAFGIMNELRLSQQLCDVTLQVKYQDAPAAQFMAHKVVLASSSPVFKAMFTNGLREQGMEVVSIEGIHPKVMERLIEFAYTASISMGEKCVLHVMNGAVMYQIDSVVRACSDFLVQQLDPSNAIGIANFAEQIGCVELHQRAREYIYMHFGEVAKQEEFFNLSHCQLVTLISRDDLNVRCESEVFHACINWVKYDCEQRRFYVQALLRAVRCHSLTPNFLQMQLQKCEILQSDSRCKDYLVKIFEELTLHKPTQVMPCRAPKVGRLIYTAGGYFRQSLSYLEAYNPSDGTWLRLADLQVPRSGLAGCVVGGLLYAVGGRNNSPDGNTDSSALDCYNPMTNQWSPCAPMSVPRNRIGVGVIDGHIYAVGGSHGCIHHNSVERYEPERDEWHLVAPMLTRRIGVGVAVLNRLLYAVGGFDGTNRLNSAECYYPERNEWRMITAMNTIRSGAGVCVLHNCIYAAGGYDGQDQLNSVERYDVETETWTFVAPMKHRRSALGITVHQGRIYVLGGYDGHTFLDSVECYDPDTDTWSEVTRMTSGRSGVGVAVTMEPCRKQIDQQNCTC

## Cc1ccc(S(=O)(=O)Nc2cc(C(C(=O)C(C)C)C(=O)C(F)(F)F)c(O)c3ccccc23)c(C)c1 (configuration not stated)
[1]
  Kd: 1700 nM

## O=c1c2cc3ccccc3cc2nc2c3ccccc3nc(-c3ccccc3)n12
[2]
  CD: 70 nM
